No end group written: not given here.
These substances were tested on Pseudomonas aeruginosa (ATCC 27853) (assay: not given). Conditions: ATCC 27853, 1 h.
Type: cell-based
Source text: (§1) Romo1 protein comprises two α-helices. The present inventors synthesized the α-helix 2 region having both hydrophilicity and hydrophobicity, and evaluated the antibacterial activity thereof using minimum bactericidal concentration (MBC) assay. The α-helix 2 region was named KU-5279 (the 52-79 amino acid region of Romo1 protein). Then, in order to identify peptides that are beneficial for human application and have excellent antibacterial activity, the present inventors synthesized several peptides comprising a sequence of contiguous amino acids starting at any amino acid selected from the 52-79 amino acid region of Romo1 protein, and comparatively evaluated the antibacterial activities of the peptides by minimum bactericidal concentration assay (See Table 1 below for information on each peptide). Evaluation of the antibacterial activity of each peptide by minimum bactericidal concentration assay was specifically performed as follows. First, each of Pseudomonas aeruginosa (ATCC 27853) and Staphylococcus aureus (ATCC 29213) was cultured in 3% (w/v) TSB (Tryptic Soy Broth) liquid medium at 37° C. and 200 rpm for 4 hours, and then further cultured under the same conditions for 3 hours to a concentration of 5×10^6 CFU/ml. Strain solutions were prepared by diluting each of the further cultured strains with SP (sodium phosphate; 10 mM sodium phosphate, 1% TSB) buffer to a final concentration of 2×10^5 CFU/ml. Then, each peptide at varying concentrations (0 μg/ml to 300 μg/ml) was dispensed into each well of a 96-well microplate, and 100 μl (1×10^5 CFU/ml) of each of the prepared strain solutions was added thereto, mixed therewith, and allowed to react with the peptide in an incubator at 37° C. for 1 hour. In addition, 30 g/L of TS (tryptic soy) and 15 g/L of agar were dissolved in distilled water and sterilized, and then 25 ml of the solution was poured onto a 100 mm round plate and solidified at room temperature for one day or more, thereby preparing a TS agar plate. 10 μl of each reaction solution of the peptide and the strain was plated on the TS agar plate at a constant size, and incubated in an incubator at 37° C. for 18 hours, and then colony formation on the plate was checked. The minimum bactericidal concentration was defined as the minimum concentration of the peptide at which no colony was formed, and the experimental results are shown in Table 1 below.

Substance | MBC value (μg/ml) against Pseudomonas aeruginosa [µg/mL]
KTMMQSGGTFGTKMAIGMGIR [KU-5878-F70K] | >300

Same assay, conditions: Tables 11-15, no unit printed

Substance | MBC Pseudomonas aeruginosa [µg/mL]
KTMMQSGG-FGTFMAIGMGIR [Peptide 5878-d66T] | 90
KTMMQSGGTFGTFMAIGMGI- [Peptide 5878-d78R] | 300
KTMMQSGGTFGT-MAIGMGIR [Peptide 5878-d70F] | 200
KTMMQS-GTFGTF-AIGM-IR [5878-d64G, d71M, d76G] | 200
KT-MQS-GTFGTF--IG-GIR [5878-d60M, d64G, d71M, d72A, d75M] | 200
KT-MQSGGTFGTFMAIGMGIR [Peptide 5878-d60M] | 90
KTMMQTGGTFGTFMAIGMGIR [KU-5878-S63T] | > 300
-TMMQSGGTFGTFMAIGMGIR [Peptide 5878-d58K] | 300
KTMMSSGGTFGTFMAIGMGIR [KU-5878-Q62S] | > 300
KTMMRSGGTFGTFMAIGMGIR [KU-5878-Q62R] | 80
KTMMQSGGTFGTKMAIGMGIR [KU-5878-F70K] | > 300

The substances below were run on Staphylococcus aureus (ATCC 29213) (assay: not given). Conditions: ATCC 29213, 1 h.
Type: cell-based
Source text: as §1

Substance | MBC value (μg/ml) against Staphylococcus aureus [µg/mL]
KTMMQSGGTFGTKMAIGMGIR [KU-5878-F70K] | >300

Same assay, conditions: Tables 11-15, no unit printed

Substance | MBC Staphylococcus aureus [µg/mL]
KTMMQSGG-FGTFMAIGMGIR [Peptide 5878-d66T] | 90
KTMMQSGGTFGTFMAIGMGI- [Peptide 5878-d78R] | 300
KTMMQSGGTFGT-MAIGMGIR [Peptide 5878-d70F] | 200
KTMMQS-GTFGTF-AIGM-IR [5878-d64G, d71M, d76G] | 200
KT-MQS-GTFGTF--IG-GIR [5878-d60M, d64G, d71M, d72A, d75M] | 200
KT-MQSGGTFGTFMAIGMGIR [Peptide 5878-d60M] | 90
KTMMQTGGTFGTFMAIGMGIR [KU-5878-S63T] | > 300
-TMMQSGGTFGTFMAIGMGIR [Peptide 5878-d58K] | 300
KTMMSSGGTFGTFMAIGMGIR [KU-5878-Q62S] | > 300
KTMMRSGGTFGTFMAIGMGIR [KU-5878-Q62R] | 80
KTMMQSGGTFGTKMAIGMGIR [KU-5878-F70K] | > 300

What follows are substances tested on CRPA (assay: MBC, evaluation of antibacterial activities of KU-5878 variants). Conditions: Tables 11-15, no unit printed.
Type: cell-based
Method: Variants were prepared by deleting one amino acid from the amino acid sequence of KU-5878 (SEQ ID NO: 13), and the antibacterial activities thereof were evaluated.
Variants were prepared by deleting two or more amino acids from the amino acid sequence of KU-5878 (SEQ ID NO: 13), and the antibacterial activities thereof were evaluated.
One amino acid in the amino acid sequence of KU-5878 (SEQ ID NO: 13) was substituted, and the antibacterial activities of the peptides were evaluated.
Substitutions of Q62K, S63K and T66K were sequentially added to the amino acid sequence of KU-5878-T59K, and the antibacterial activities of the peptides were evaluated.
An amino acid repeat sequence was added to the C-terminus of KU-5878, and the antibacterial activities of the peptides were evaluated. According to Table 15 below, when the R (arginine) repeat sequence or K (lysine) sequence was added to the C-terminus of KU-5878, the antibacterial activity of the peptide increased.

Substance | MBC CRPA [µg/mL]
KTMMQSGG-FGTFMAIGMGIR [Peptide 5878-d66T] | 100
KTMMQSGGTFGTFMAIGMGI- [Peptide 5878-d78R] | > 300
KTMMQSGGTFGT-MAIGMGIR [Peptide 5878-d70F] | 200
KTMMQS-GTFGTF-AIGM-IR [5878-d64G, d71M, d76G] | 200
KT-MQS-GTFGTF--IG-GIR [5878-d60M, d64G, d71M, d72A, d75M] | 200
KT-MQSGGTFGTFMAIGMGIR [Peptide 5878-d60M] | 90
KTMMQTGGTFGTFMAIGMGIR [KU-5878-S63T] | > 300
-TMMQSGGTFGTFMAIGMGIR [Peptide 5878-d58K] | 300
KTMMSSGGTFGTFMAIGMGIR [KU-5878-Q62S] | > 300
KTMMRSGGTFGTFMAIGMGIR [KU-5878-Q62R] | 80
KTMMQSGGTFGTKMAIGMGIR [KU-5878-F70K] | > 300

These substances were tested on methicillin-resistant Staphylococcus aureus (ATCC 33591) (assay: not given). Conditions: Tables 11-15, no unit printed.
Method: First, each of Pseudomonas aeruginosa (ATCC 27853) and Staphylococcus aureus (ATCC 29213) was cultured in 3% (w/v) TSB (Tryptic Soy Broth) liquid medium at 37° C. and 200 rpm for 4 hours, and then further cultured under the same conditions for 3 hours to a concentration of 5×10^6 CFU/ml. Strain solutions were prepared by diluting each of the further cultured strains with SP (sodium phosphate; 10 mM sodium phosphate, 1% TSB) buffer to a final concentration of 2×10^5 CFU/ml.
(§2) Then, each peptide at varying concentrations (0 μg/ml to 300 μg/ml) was dispensed into each well of a 96-well microplate, and 100 μl (1×10^5 CFU/ml) of each of the prepared strain solutions was added thereto, mixed therewith, and allowed to react with the peptide in an incubator at 37° C. for 1 hour.
In addition, 30 g/L of TS (tryptic soy) and 15 g/L of agar were dissolved in distilled water and sterilized, and then 25 ml of the solution was poured onto a 100 mm round plate and solidified at room temperature for one day or more, thereby preparing a TS agar plate. 10 μl of each reaction solution of the peptide and the strain was plated on the TS agar plate at a constant size, and incubated in an incubator at 37° C. for 18 hours, and then colony formation on the plate was checked.
Specifically, each type of bacteria was cultured in 3% (w/v) TSB (Tryptic Soy Broth) liquid medium at 37° C. and 200 rpm for 4 hours, and then further cultured under the same conditions for 3 hours to a concentration of 5×10^6 CFU/ml. Strain solutions were prepared by diluting each of the […] of 2×10^5 CFU/ml.
as §2, with “Then, the KU-5878” for “Then, each”
In addition, 10 μl of each reaction solution of the peptide and the strain was plated on the TS agar plate at a constant size, and incubated in an incubator at 37° C. for 18 hours, and then colony formation on the plate was checked.

Substance | MBC MRSA [µg/mL]
KTMMQSGG-FGTFMAIGMGIR [Peptide 5878-d66T] | 90
KTMMQSGGTFGTFMAIGMGI- [Peptide 5878-d78R] | > 300
KTMMQSGGTFGT-MAIGMGIR [Peptide 5878-d70F] | 200
KTMMQS-GTFGTF-AIGM-IR [5878-d64G, d71M, d76G] | 200
KT-MQS-GTFGTF--IG-GIR [5878-d60M, d64G, d71M, d72A, d75M] | 200
KT-MQSGGTFGTFMAIGMGIR [Peptide 5878-d60M] | 100
KTMMQTGGTFGTFMAIGMGIR [KU-5878-S63T] | > 300
-TMMQSGGTFGTFMAIGMGIR [Peptide 5878-d58K] | > 300
KTMMSSGGTFGTFMAIGMGIR [KU-5878-Q62S] | > 300
KTMMRSGGTFGTFMAIGMGIR [KU-5878-Q62R] | 90
KTMMQSGGTFGTKMAIGMGIR [KU-5878-F70K] | > 300

Reference: US12053506B2, “Romo1-derived antimicrobial peptides and variants thereof” (priority 2019, dated 2024)
